Source: patent US6579888B2, “Method and kit for treating illnesses” (Opt-e-scrip, Inc., priority 1994, dated 2003)

Key:
[1] = tested on: hyperactive child (Minimum Brain Dysfunction); assay: SPAS single-patient random double-blind crossover trial of methylphenidate versus placebo
Protocol: In this example, the usefulness of methylphenidate (Ritalin) treatment in a hyperactive child (Minimum Brain Dysfunction) is evaluated.
Technology: Consists of instructions, “calendar” packaging for drug and a substantially identical looking placebo to assure appropriate dosing and monitor compliance, questionnaire assessment forms and instructions. […] Results are mailed to the physician and, in this case, parent for use in evaluating the usefulness of the therapy. The physician and parent are contacted, e.g., every three months to provide data on therapies utilized, and perceived outcome, until the condition resolves.
The questionnaire portion of the kit includes an initial consent form for the parent or guardian to complete. The questionnaire also provides background information on the study and possible side effects associated with the medication. Also included therein is a portion for providing relevant patient and family histories. More importantly, the questionnaire, in this case includes a portion for the weekly input by parents or guardian and school observers of answers to questions relating to the drug evaluation. Typical questionnaire sheet for these portions are shown below as Table 1 and Table 2. Physician questionnaires are similarly arranged.
The trial calls for 40 mg daily given at 10 mg four times daily compared to identical appearing placebo given four times daily.

[2] = tested on: patients with the same disorder (hyperactive child); assay: Pooled SPAS data and monthly follow-up of patients with the same disorder continued on methylphenidate; format: in vivo, human
Protocol: All results obtained from the data are then compared against the results provided by data amassed from a pool of about 200 patients with the same disorder. Of these 200 patients, 55 experienced encouraging results (as did the current patient) and were continued on 40 mg daily treatment. Of these 55 patients, 5 were lost to follow-up, with 50 remaining for prospective evaluation. Because the physician would now choose to continue the patient on 40 mg methylphenidate daily based solely on the isolated SPAS single patient drug trial results, they now take the opportunity of reviewing the pooled data on the 50 patients. This is done to understand under what circumstances this individual patient would likely continue to show benefit from methylphenidate 40 mg treatment, and what conditions lead to treatment failure.
The pool of 50 patients who continued treatment had the following scores following the original SPAS testing:
All 50 patients were followed up by telephone interview monthly for nine months or more, and outcomes were prospectively documented.

hypertensive person = assay: Six-week random double-blind trial of sustained release verapamil as therapeutic alternative to sustained release propranolol; format: in vivo, human; settings: verapamil SR 240 mg once daily versus propranolol SR 180 mg once daily; end of six-week trial; statistically insignificant
Protocol: In this example, the validity of using a sustained release formulation of verapamil 240 mg once daily as a therapeutic alternative to sustained release propranolol 180 mg once daily in a hypertensive person is shown. The trial during which the two medications are randomly administered in a double-blind manner is six weeks. The questionnaire used is set up in a manner similar to that described in above examples except that the questions elicit information related to the disease of hypertension. Blood pressure is taken daily by the patient and weekly by the physician. Lab values and vision tests are also reported weekly by the physician. […] Both values are statistically insignificant and the therapeutic alternative selection is objectively validated.

[3] = patients with statistically altered sleep patterns, continued 40 mg daily
[4] = pool of 50 patients, original SPAS testing

Structure (SMILES) | patient's attention span ([1]; 40 mg daily (10 mg four times daily), methylphenidate periods versus placebo periods) | teacher comments ([1]; 40 mg daily, methylphenidate dosing periods) | sleep patterns ([1]; 40 mg daily, methylphenidate periods) | outcome on continued treatment, patients with no statistically altered sleep disturbances ([2]; 40 mg daily, monthly follow-up for nine months or more) | outcome on continued treatment, patients with statistically altered sleep patterns ([2]; 40 mg daily, within two months) | discontinuation from treatment ([2]; all patients with a statistically altered sleep disturbance) | patients who experienced encouraging results and were continued on treatment ([2]; of a pool of about 200 patients, 40 mg daily) [patients] | patients who experienced a grand mal seizure [2, 3] | severe episodes of bizarre behaviors / severe adverse event [2, 3] [%] | Attention Span: patients who had substantial improvement ([2]; pool of 50 patients who continued treatment, original SPAS testing) [% had substantial] | Sleep Patterns: patients not statistically altered [2, 4] [% were not statistically] | Sleep Patterns: patients statistically altered [2, 4] | Teacher Comments: corroborate improved attention span [2, 4] [% corroborate improved] | Teacher Comments: did not corroborate improved attention span [2, 4] [% did not corroborate] | mean diastolic pressure (hypertensive person) | mean systolic blood pressure increase (hypertensive person) [%]
COC(=O)C(c1ccccc1)C1CCCCN1 (stereo not shown) [methylphenidate] | improved substantially | corroborate improved attention span | statistically altered | continued to be well maintained on treatment | showed loss of symptom control | had to be discontinued from treatment within two months | 55 | two | 90 | 100 | 50 | 50% were statistically altered | 80 | 20 | – | –
COc1ccc(CCN(C)CCCC(C#N)(c2ccc(OC)c(OC)c2)C(C)C)cc1OC (stereo not shown) [verapamil] | – | – | – | – | – | – | – | – | – | – | – | – | – | – | essentially stable | 3
